The values below come from patent publication US20230085307A1, “PYRIDAZINONE COMPOUND AND HERBICIDE” (NISSAN CHEMICAL CORPORATION, priority 2019, published 2023).

Molecules are shown by their SMILES.

Assay [1] relates to green foxtail. The assay can be described thus: Test Example 4: herbicidal effect by soil treatment (Table 19, symbol G). The format is in vivo, green foxtail (Setaria viridis). The conditions noted are these: 320 g/ha. Put shortly:
(§1)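 Scoring uses the grading scale of an earlier test, three weeks post-application. Treatment consists of spraying a diluted emulsion formulation across the surface of sterilized diluvial soil in which seeds are buried near 1.5 cm deep; boxes are kept in a greenhouse between 25° C. and 30° C.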

Another assay deals with persian speedwell. Briefly: Test Example 5: herbicidal effect by foliage application, plastic box (Table 20, symbol R). The format is in vivo, Persian speedwell (Veronica persica). The note with it: foliage application, 320 g/ha, 3 weeks after application. Put shortly: (§2)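 Post-emergence foliar test in sterilized diluvial soil. Compound applied as water-diluted emulsion at a predetermined rate to 14-day-old plants; evaluation at three weeks.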

In a further assay the test system is late watergrass. The assay can be described thus: Test Example 2: herbicidal activity, application during weed generation under submerged conditions (Table 17, symbol A). The class given is in vivo, late watergrass (Echinochloa oryzicola). The conditions noted are these: AAH 320 g/ha; application during weed generation, submerged conditions. Summed up: (§3)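 3-wk visual-criteria score after one water-surface dose. Emulsion formulation, water-diluted to set rate; applied at 1–2 leaf stage; alluvial soil, 4 cm standing water; seeds co-sown; greenhouse 25–30° C.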

A further assay concerns lambsquarters. Briefly: Test Example 4: herbicidal effect by soil treatment (Table 19, symbol O). The format is in vivo, lambsquarters (Chenopodium album). The conditions noted are these: 320 g/ha. Put shortly: as §1
The test system of assay [2] is Italian ryegrass. Briefly: Test Example 4: herbicidal effect by soil treatment (Table 19, symbol K). The format is in vivo, Italian ryegrass (Lolium multiflorum). The conditions noted are these: 320 g/ha. Put shortly: as §1
For assay [3], the system named is velvetleaf. Briefly: Test Example 4: herbicidal effect by soil treatment (Table 19, symbol M). The format is in vivo, velvetleaf (Abutilon theophrasti). The note with it: 320 g/ha. Summed up: as §1
The subject of the next assay is redroot pigweed. The assay can be described thus: Test Example 4: herbicidal effect by soil treatment (Table 19, symbol N). The format is in vivo, redroot pigweed (Amaranthus retroflexus). The conditions noted are these: 320 g/ha. Put shortly:
as §1

In a further assay the test system is rice flat sedge. The assay can be described thus: Test Example 3: herbicidal effect by foliage application, Wagner pot (Table 18, symbol E). The note with it: 320 g/ha. The format is in vivo, rice flat sedge (Cyperus iria). Summed up:
(§4)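 Plants were sown in alluvial soil held under 0.1–0.5 cm standing water and grown 14 days in a greenhouse at 25–30 °C. An emulsifiable formulation, water-diluted to the set dose, was then sprayed onto the foliage, and effects were scored three weeks later using previously defined criteria.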

In assay [4] the test system is barnyard grass. The assay can be described thus: Test Example 4: herbicidal effect by soil treatment (Table 19, symbol H). The format is in vivo, barnyard grass (Echinochloa crus-galli). The note with it: 320 g/ha. Put shortly:
as §1

Another assay has as its system windgrass. Briefly: Test Example 5: herbicidal effect by foliage application, plastic box (Table 20, symbol L). The format is in vivo, windgrass (Apera spica-venti). The note with it: foliage application, 320 g/ha, 3 weeks after application. Summed up: as §2
In assay [5] the test system is Italian ryegrass. The assay can be described thus: Test Example 5: herbicidal effect by foliage application, plastic box (Table 20, symbol K). The format is in vivo, Italian ryegrass (Lolium multiflorum). The note with it: foliage application, 320 g/ha, 3 weeks after application. Summed up: as §2
For assay [6], the system named is velvetleaf. The assay can be described thus: Test Example 5: herbicidal effect by foliage application, plastic box (Table 20, symbol M). The format is in vivo, velvetleaf (Abutilon theophrasti). The conditions noted are these: foliage application, 320 g/ha, 3 weeks after application. Summed up: as §2
For assay [7], the system named is wild oat. Briefly: Test Example 4: herbicidal effect by soil treatment (Table 19, symbol I). The format is in vivo, wild oat (Avena fatua). The conditions noted are these: 320 g/ha. Put shortly: as §1
A further assay deals with blackgrass. The assay can be described thus: Test Example 5: herbicidal effect by foliage application, plastic box (Table 20, symbol J). The format is in vivo, blackgrass (Alopecurus myosuroides). The conditions noted are these: foliage application, 320 g/ha, 3 weeks after application. Put shortly: as §2
For assay [8], the system named is green foxtail. The assay can be described thus: Test Example 5: herbicidal effect by foliage application, plastic box (Table 20, symbol G). The format is in vivo, green foxtail (Setaria viridis). The note with it: foliage application, 320 g/ha, 3 weeks after application. Put shortly: as §2
The test system of another assay is Japanese bulrush. The assay can be described thus: Test Example 2: herbicidal activity, application during weed generation under submerged conditions (Table 17, symbol B). The class given is in vivo, Japanese bulrush (Schoenoplectus juncoides). The conditions noted are these: AAH 320 g/ha; application during weed generation, submerged conditions. Put shortly: as §3

A further assay deals with chickweed. The assay can be described thus: Test Example 4: herbicidal effect by soil treatment (Table 19, symbol P). The conditions noted are these: 320 g/ha. The class given is in vivo, common chickweed (Stellaria media). Summed up: as §1
For the next assay, the system named is southern crabgrass. Briefly: Test Example 4: herbicidal effect by soil treatment (Table 19, symbol F). The note with it: 320 g/ha. The class given is in vivo, southern crabgrass (Digitaria ciliaris). Put shortly:
as §1

Assay [9] has as its system wild oat. The assay can be described thus: Test Example 5: herbicidal effect by foliage application, plastic box (Table 20, symbol I). The class given is in vivo, wild oat (Avena fatua). The note with it: foliage application, 320 g/ha, 3 weeks after application. Put shortly:
as §2

Assay [10] relates to barnyard grass. Briefly: Test Example 3: herbicidal effect by foliage application, Wagner pot (Table 18, symbol H). The class given is in vivo, barnyard grass (Echinochloa crus-galli). The conditions noted are these: 320 g/ha. Summed up:
as §4

Consider `CCCC(=O)Oc1c(C)nn(C)c(=O)c1-c1c(-c2ccc(COC)cc2)sc2ccc(F)cc12` [2-023], for which the “herbicidal effect rating, G: green foxtail” value (from here on “herbicidal effect rating, G”) in the assay on green foxtail [1] is given as 5 (Herbicidal rate of 90% or more (almost completely withered)). The “effect on persian speedwell (R)” value in the assay on persian speedwell is 5 (Herbicidal rate of 90% or more (almost completely withered)). Also, in the assay on late watergrass, the “herbicidal effect rating, A: late watergrass” value is 3 (Herbicidal rate of 40% or more and less than 70%). Further, the “herbicidal effect rating, O: lambsquarters” value (from here on “herbicidal effect rating, O”) with lambsquarters is 5 (Herbicidal rate of 90% or more (almost completely withered)). In addition, the “herbicidal effect rating, K: Italian ryegrass” value (from here on “herbicidal effect rating, K”) in the assay with Italian ryegrass [2] was 4 (Herbicidal rate of 70% or more and less than 90%). Besides, the “herbicidal effect rating, M: velvetleaf” value in the assay on velvetleaf [3] was 2 (Herbicidal rate of 20% or more and less than 40%). In the assay on redroot pigweed, the “herbicidal effect rating, N: redroot pigweed” value (“herbicidal effect rating, N” below) is 5 (Herbicidal rate of 90% or more (almost completely withered)). Moreover, in the assay with rice flat sedge, the “herbicidal effect on E (rice flat sedge), rating 0-5” value (“herbicidal effect on E” for short) is 5 (Herbicidal rate of 90% or more (almost completely withered)). Further, the “herbicidal effect rating, H: barnyard grass” value (shortened to “herbicidal effect rating, H”) with barnyard grass [4] was 4 (Herbicidal rate of 70% or more and less than 90%). The “effect on windgrass (L)” value in the assay with windgrass is 4 (Herbicidal rate of 70% or more and less than 90%). In addition, in the assay with Italian ryegrass [5], the “effect on Italian ryegrass (K)” value is 4 (Herbicidal rate of 70% or more and less than 90%). Also, the “effect on velvetleaf (M)” value with velvetleaf [6] is 5 (Herbicidal rate of 90% or more (almost completely withered)). Further, the “herbicidal effect rating, I: wild oat” value in the assay with wild oat [7] is on record as 0 (Herbicidal rate of 5% or less (almost no effect)). The “effect on blackgrass (J)” value in the assay with blackgrass was 4 (Herbicidal rate of 70% or more and less than 90%). Further, in the assay on green foxtail [8], the “effect on green foxtail (G)” value is listed as 5 (Herbicidal rate of 90% or more (almost completely withered)). The “herbicidal effect rating, B: Japanese bulrush” value (“herbicidal effect rating, B” for short) in the assay on Japanese bulrush was 0 (Herbicidal rate of 5% or less (almost no effect)). Moreover, the “herbicidal effect rating, P: chickweed” value in the assay on chickweed is 3 (Herbicidal rate of 40% or more and less than 70%). For the same compound, in the assay with southern crabgrass, the “herbicidal effect rating, F: southern crabgrass” value (“herbicidal effect rating, F” below) was 4 (Herbicidal rate of 70% or more and less than 90%). Further, the “effect on wild oat (I)” value in the assay with wild oat [9] is 0 (Herbicidal rate of 5% or less (almost no effect)). For the same compound, the “herbicidal effect on H (barnyard grass), rating 0-5” value (shortened to “herbicidal effect on H”) in the assay on barnyard grass [10] is on record as 5 (Herbicidal rate of 90% or more (almost completely withered)).

In the case of `CCCC(=O)Oc1c(C)nn(C)c(=O)c1-c1c(-c2ccc(OC)cc2)sc2ccc(F)cc12` [2-027], in the assay with green foxtail [1], the “herbicidal effect rating, G” value is 4 (Herbicidal rate of 70% or more and less than 90%). Further, the “effect on persian speedwell (R)” value with persian speedwell is 5 (Herbicidal rate of 90% or more (almost completely withered)). Moreover, in the assay on late watergrass, the “herbicidal effect rating, A: late watergrass” value was 3 (Herbicidal rate of 40% or more and less than 70%). Also, the “herbicidal effect rating, O” value with lambsquarters was 5 (Herbicidal rate of 90% or more (almost completely withered)). The “herbicidal effect rating, K” value in the assay with Italian ryegrass [2] is 4 (Herbicidal rate of 70% or more and less than 90%). Besides, the “herbicidal effect rating, M: velvetleaf” value with velvetleaf [3] was 3 (Herbicidal rate of 40% or more and less than 70%). In addition, the “herbicidal effect rating, N” value with redroot pigweed is reported as 5 (Herbicidal rate of 90% or more (almost completely withered)). The “herbicidal effect on E” value in the assay on rice flat sedge is 5 (Herbicidal rate of 90% or more (almost completely withered)). Further, in the assay with barnyard grass [4], the “herbicidal effect rating, H” value was 4 (Herbicidal rate of 70% or more and less than 90%). The “effect on windgrass (L)” value in the assay on windgrass is 0 (Herbicidal rate of 5% or less (almost no effect)). Further, in the assay with Italian ryegrass [5], the “effect on Italian ryegrass (K)” value is recorded as 5 (Herbicidal rate of 90% or more (almost completely withered)). Besides, the “effect on velvetleaf (M)” value in the assay on velvetleaf [6] is 5 (Herbicidal rate of 90% or more (almost completely withered)). For the same compound, the “herbicidal effect rating, I: wild oat” value in the assay on wild oat [7] is 2 (Herbicidal rate of 20% or more and less than 40%). For the same compound, in the assay on blackgrass, the “effect on blackgrass (J)” value is 2 (Herbicidal rate of 20% or more and less than 40%). In addition, in the assay on green foxtail [8], the “effect on green foxtail (G)” value was 4 (Herbicidal rate of 70% or more and less than 90%). For the same compound, the “herbicidal effect rating, B” value in the assay on Japanese bulrush was 4 (Herbicidal rate of 70% or more and less than 90%). Further, the “herbicidal effect rating, P: chickweed” value in the assay with chickweed is 4 (Herbicidal rate of 70% or more and less than 90%). In addition, the “herbicidal effect rating, F” value in the assay on southern crabgrass was 3 (Herbicidal rate of 40% or more and less than 70%). The “effect on wild oat (I)” value with wild oat [9] was 4 (Herbicidal rate of 70% or more and less than 90%). Besides, in the assay on barnyard grass [10], the “herbicidal effect on H” value was 5 (Herbicidal rate of 90% or more (almost completely withered)).

Regarding `CCOc1ccc(-c2sc3ccc(F)cc3c2-c2c(O)c(C)nn(C)c2=O)cc1` [2-030], the “herbicidal effect rating, G” value with green foxtail [1] was 0 (Herbicidal rate of 5% or less (almost no effect)). The “effect on persian speedwell (R)” value in the assay on persian speedwell is 5 (Herbicidal rate of 90% or more (almost completely withered)). In the assay with late watergrass, the “herbicidal effect rating, A: late watergrass” value was 0 (Herbicidal rate of 5% or less (almost no effect)). Also, the “herbicidal effect rating, O” value in the assay on lambsquarters is recorded as 5 (Herbicidal rate of 90% or more (almost completely withered)). Also, the “herbicidal effect rating, K” value with Italian ryegrass [2] is given as 0 (Herbicidal rate of 5% or less (almost no effect)). Further, the “herbicidal effect rating, M: velvetleaf” value with velvetleaf [3] is 3 (Herbicidal rate of 40% or more and less than 70%). Further, the “herbicidal effect rating, N” value in the assay on redroot pigweed was 4 (Herbicidal rate of 70% or more and less than 90%). In addition, in the assay on rice flat sedge, the “herbicidal effect on E” value is on record as 5 (Herbicidal rate of 90% or more (almost completely withered)). Besides, the “herbicidal effect rating, H” value in the assay on barnyard grass [4] is 0 (Herbicidal rate of 5% or less (almost no effect)). Besides, in the assay with windgrass, the “effect on windgrass (L)” value was 3 (Herbicidal rate of 40% or more and less than 70%). For the same compound, the “effect on Italian ryegrass (K)” value in the assay with Italian ryegrass [5] is 3 (Herbicidal rate of 40% or more and less than 70%). The “effect on velvetleaf (M)” value in the assay on velvetleaf [6] was 5 (Herbicidal rate of 90% or more (almost completely withered)). Also, in the assay with wild oat [7], the “herbicidal effect rating, I: wild oat” value is 0 (Herbicidal rate of 5% or less (almost no effect)). Moreover, in the assay with blackgrass, the “effect on blackgrass (J)” value is recorded as 0 (Herbicidal rate of 5% or less (almost no effect)). In addition, in the assay on green foxtail [8], the “effect on green foxtail (G)” value is 2 (Herbicidal rate of 20% or more and less than 40%). Moreover, the “herbicidal effect rating, B” value with Japanese bulrush was 2 (Herbicidal rate of 20% or more and less than 40%). Also, the “herbicidal effect rating, P: chickweed” value in the assay with chickweed was 3 (Herbicidal rate of 40% or more and less than 70%). Besides, the “herbicidal effect rating, F” value in the assay on southern crabgrass was 0 (Herbicidal rate of 5% or less (almost no effect)). Further, the “effect on wild oat (I)” value with wild oat [9] is reported as 0 (Herbicidal rate of 5% or less (almost no effect)). The “herbicidal effect on H” value in the assay with barnyard grass [10] is reported as 5 (Herbicidal rate of 90% or more (almost completely withered)).
